Molecules are shown by their SMILES. Records with an inconclusive call do not appear.

In this assay the target is Virion infectivity factor (Human immunodeficiency virus type 1 group M subtype B (isolate BH10)) + Virion infectivity factor (Human immunodeficiency virus type 1 group M subtype B (isolate BRU/LAI)) + Virion infectivity factor (Human immunodeficiency virus type 1 group M subtype B (isolate PCV12)) + Virion infectivity factor (Human immunodeficiency virus type 1 group M subtype B (isolate HXB2)) + DNA dC->dU-editing enzyme APOBEC-3G (Homo sapiens) (UniProt P69720+P69721+P69722+P69723+Q9HC16). As to the kind of experiment: HIV-1 Vif–A3G interaction blockers – biochemical, TR-FRET, GST-Vif 1-94, biotin-A3G peptide, dose response retest, primary screen (AID 1117319).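 Further: Vif residues 1-94 fused to GST binding biotinylated APOBEC3G peptide 110-148.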 The settings on record: TR-FRET GST-Vif / biotin-A3G peptide binding.
Consider `O=[N+]([O-])c1ccc2c([N+](=O)[O-])ccc3c2c1CC3`, for which the IC50 was 12.2 µM.

As for `Cc1cc(C(=O)CN2C(=O)c3ccccc3S2(=O)=O)c(C)n1CC1CCCO1` (stereo unspecified), the IC50 was 51.2 µM.

Take `COC(=O)C1=C(N)OC2=C(C(=O)CCC2)C1c1cccs1` (stereo unspecified): the half-maximal inhibitory concentration (IC50) was 44.8 µM.

Take `Cc1ccc(CNC(=O)COc2ccc3c(c2)CCC3)cc1`: the IC50 is 44.6 µM.

Consider `Cc1cc(C)c([N+](=O)[O-])cc1-c1ccc(/C=N/NC(=O)c2nonc2N)o1`, for which the IC50 was 52.7 µM.

In the case of `COc1ccccc1-n1c(SCC(=O)NCc2ccc3c(c2)OCO3)nc2cc([N+](=O)[O-])ccc21`, the IC50 was 22.7 µM.

As to `COc1cc(NCCCCCCN)c2ncccc2c1OC`, the IC50 is 3.55 µM.

Take `O=C(NC1CCC(C(=O)O)CC1)OCc1ccccc1` (stereo unspecified): the half-maximal inhibitory concentration (IC50) is 12.4 µM.

On to `Cc1cc(C)cc(N(CC(=O)NCc2cccnc2)S(C)(=O)=O)c1`, for which the IC50 is 36.7 µM.

In the case of `O=S(=O)(O)c1cc(O)c2ccc(Nc3ccccc3)cc2c1`, the IC50 was 1.38 µM.

On to `COc1ccc(Oc2nc(C)cc(C)c2C#N)cc1`, for which the IC50 is 59.3 µM.

Consider `CC[n+]1ccc(C)c2cc(P(=O)(c3ccccc3)c3ccccc3)ccc21`, for which the IC50 is 3.93 µM.

On to `CC(/C=C1\SC(=S)N(CCCC(=O)Nc2ccc(C(=O)O)c(O)c2)C1=O)=C\c1ccccc1`, for which the IC50 is 5.1 µM.

Regarding `Nc1ccccc1NC1=CC(=O)CC(c2ccco2)C1` (stereo unspecified), the IC50 is 49.4 µM.

As for `Cc1[nH]c2ccccc2c1C(=O)Cn1c(=O)oc2ccccc21`, the IC50 is 96.2 µM.

With `O=C(COC(=O)c1ccc(NS(=O)(=O)c2cccs2)cc1)NCc1ccco1`, the IC50 was 5.88 µM.

Take `CC(=O)Nc1ccc(S(=O)(=O)Nc2nc3ccccc3nc2Nc2ccc(N)cc2)cc1`: the IC50 was 0.62 µM.

With `O=C(OCC(=O)N1CCN(C(=O)c2ccco2)CC1)c1cc(-c2ccco2)nc2ccccc12`, the IC50 was 3.95 µM.

`O=C(N/N=C/C=C\c1ccco1)c1cccnc1`: the IC50 is 4.09 µM.

Take `O=C(O)C1Nc2c(Cl)cc(Cl)c(Cl)c2C2C=CCC12` (stereo unspecified): the IC50 was 30 µM.

Consider `N#Cc1c(N)sc(=S)c2c1CCCCC2`, for which the IC50 was 4.22 µM.

With `CCOC(=O)C1=C(C)N=C2SC(C(=O)OC)=CC(=O)N2C1c1cc(OC)c(OC)c(OC)c1` (stereo unspecified), the IC50 is 11 µM.

In the case of `O=C(c1ccc(=O)oc1)N1CCCc2ccccc21`, the IC50 is 38.3 µM.

With `Cc1ccc(C)n1/N=C1/NC(=O)CS1`, the IC50 is 0.9 µM.

As to `CC(C)OP(=O)(OC(C)C)C(O)c1ccc(N(C)C)cc1` (stereo unspecified), the IC50 was 75.9 µM.

For `O=[N+]([O-])c1cc(CN2CCCC2)c2cccnc2c1O`, the IC50 is 2.48 µM.

As for `O=C(O)CC(C(=O)O)N1C(=O)/C(=C/c2ccc(-c3nc4ccccc4s3)o2)SC1=S` (stereo unspecified), the half-inhibitory concentration (IC50) was 6.36 µM.

Consider `Cc1cc(-c2ccco2)n(-c2ccccc2)n1`, for which the IC50 was 50.4 µM.

Turning to `O=C(c1cccc(-n2cccc2)c1)N1CCN(S(=O)(=O)c2ccccc2)CC1`, the IC50 was 17.3 µM.

As to `COc1cc2[nH]c(Cl)c([N+](=O)[O-])c2cc1OC`, the IC50 was 3.81 µM.

`Cc1ccc(N(CN2C(=O)C3CC=CCC3C2=O)C(=O)c2ccco2)cc1Cl` (stereo unspecified): the IC50 was 53.4 µM.

Take `O=C(N/N=C/C(Br)=C/c1ccccc1)c1cc(-c2ccco2)[nH]n1`: the IC50 was 5.12 µM.

As to `CC(C)CCNC(=O)c1ccc2c(SCC(=O)O)c3c(nc2c1)CCC3`, the IC50 was 59.8 µM.

In the case of `COc1ccc(NC(=O)CC2Nc3cccc4cccc(c34)NC2=O)cc1` (stereo unspecified), the IC50 is 1.21 µM.

Consider `CNC(=O)[C@@H]1C[C@H]1[C@@H](NC(=O)OCc1ccccc1)c1ccccc1`, for which the half-maximal inhibitory concentration (IC50) was 16.6 µM.

Turning to `CC(C)NC[C@@H](O)c1ccc(O)c(O)c1`, the IC50 was 4.93 µM.

For `O=C1C(O)CC2c3ccccc3CC3(CCCC3)N12` (stereo unspecified), the half-maximal inhibitory concentration (IC50) was 50.6 µM.

Turning to `COc1ccc(CN2C(=O)NC(=O)/C(=C/c3ccc([N+](=O)[O-])s3)C2=O)cc1`, the IC50 was 14.5 µM.

Regarding `Cc1cc(C(=O)CSc2nnnn2C)c(C)n1CCc1ccc(Cl)cc1`, the half-maximal inhibitory concentration (IC50) was 29.4 µM.

Take `CC(=O)NN1C(=O)/C(=C\c2ccc(Br)o2)SC1=S`: the IC50 was 5.73 µM.

Regarding `c1cnc(N2CCN(c3cnccn3)CC2)nc1`, the IC50 is 14.3 µM.

Turning to `Cc1cccc(-n2nc3c(c2NC(=O)c2ccc(Br)o2)CSC3)c1`, the IC50 is 63.6 µM.

As for `COc1cc(C(=O)NNC(=S)NCc2ccco2)cc(OC)c1OC`, the IC50 was 63.5 µM.

Turning to `Nc1ccc(N2CCN(CCCCN3C(=O)C4CCCN4C3=O)CC2)cc1` (stereo unspecified), the IC50 was 1.34 µM.

With `CC(=O)Nc1ccc(S(=O)(=O)NCCSCc2ccco2)cc1`, the IC50 was 15.3 µM.

For the molecule `CCCn1cnc2cc(NCc3ccccn3)ccc21`, the half-inhibitory concentration (IC50) is 28.6 µM.

Take `CC1CCCCC1NC(=O)COC(=O)c1c2c(nc3ccccc13)/C(=C/c1ccco1)CC2` (stereo unspecified): the concentration for half-maximal inhibition (IC50) is 1.33 µM.

As to `O=C(NCCS(=O)CCNC(=O)C(F)(F)F)C(F)(F)F`, the IC50 is 95 µM.

As for `CCN1CCc2c(C#N)c(NCc3ccccc3)nc(N(CC)CC)c2C1`, the IC50 was 62.8 µM.

Turning to `COc1ccc2c(c1)O[C@@H](c1ccc3c(c1)OCO3)[C@H](OC(=O)Nc1cc(OC)c(OC)c(OC)c1)C2=O`, the IC50 is 66.6 µM.

Regarding `CNc1ccc(Br)cc(C(=O)/C=C/c2ccc(Cl)cc2Cl)c1=O`, the IC50 is 9.23 µM.

Take `Cc1c(C(=O)N2CCN(c3ccccc3F)CC2)sc2nc(-c3ccccc3)cn12`: the IC50 was 93 µM.

Take `Oc1ccc(N=Cc2sc3ccccc3c2Cl)cc1`: the IC50 is 3.11 µM.

Turning to `CCOC(=O)c1c2c(n(Cc3ccccc3)c1C)C(=O)C(=O)c1ccccc1-2`, the IC50 is 79.5 µM.

Consider `O=C1NC(=O)N(Cc2ccc(F)cc2)C(=O)/C1=C\C=C\c1ccco1`, for which the IC50 is 19.2 µM.

Regarding `C/C(N)=C(/C#N)C(=O)CSc1nnc(Nc2c(C)cccc2C)s1`, the IC50 was 17.5 µM.

Turning to `O=C1NN(c2ccc(Cl)cc2)C(=O)/C1=C\c1ccc(-c2cccc(C(=O)O)c2)o1`, the concentration for half-maximal inhibition (IC50) was 5.76 µM.

As to `O=C(N/N=C/C=C/c1ccco1)c1ccncc1`, the IC50 was 2.36 µM.

In the case of `COc1cc2c3c(c1OC)C1(C=CC(=O)C=C1)CC3N(C(=O)CCC(=O)O)CC2` (stereo unspecified), the IC50 was 13.3 µM.

On to `Cn1c(=O)c2c(ncn2CC(=O)N/N=C/C=C/c2ccco2)n(C)c1=O`, for which the IC50 was 6.39 µM.

As for `CCCCn1c(=NC(=O)c2cccnc2)c(C#N)cc2c(=O)n3cccc(C)c3nc21`, the IC50 is 55.9 µM.

`Cc1n[nH]c(=S)n(NC(=O)/C=C/C(=O)Nn2c(=S)[nH]nc(C)c2=O)c1=O`: the IC50 was 2.38 µM.

`Cc1cc(Cl)c(S(=O)(=O)NCC2CCCO2)cc1OCC(=O)NC1CCCCC1` (stereo unspecified): the concentration for half-maximal inhibition (IC50) was 77.1 µM.

Take `O=C(/C=C/c1cccs1)Nc1ccc(Br)cn1`: the IC50 was 10.2 µM.

For `C=C(C)C(=O)Nc1cccc(C2=NOC3(C2)C[C@@H](C(N)=O)N(C(=O)/C=C/CC)C3)c1` (stereo partly specified), the IC50 is 3.32 µM.

In the case of `CN(C)c1nc(N)nc(CSc2nc3c(c(=O)n(C)c(=O)n3C)n2Cc2ccccc2F)n1`, the IC50 was 60.9 µM.

Turning to `COc1nc(N(c2ccccc2)c2ccccc2)nc(-n2ccnc2)n1`, the IC50 was 26.3 µM.

Regarding `CN(CC(=O)Nc1cccc(F)c1)C(=O)c1cccc(-n2cccc2)c1`, the IC50 was 8.08 µM.

As to `CN1C(=O)/C(=C/C=C/c2ccco2)C(=O)NC1=S`, the IC50 is 13.4 µM.

Consider `CCOc1ccc(NCC2CCOC(C)(C)C2)cc1` (stereo unspecified), for which the IC50 was 9.47 µM.

In the case of `C=C(C)C(=O)Nc1cccc(C2=NOC3(C2)C[C@@H](C(N)=O)N(C(=O)CC(c2ccccc2)c2ccccc2)C3)c1` (stereo partly specified), the IC50 was 3.06 µM.

Regarding `Cc1noc(C)c1S(=O)(=O)Nc1ccc2c(c1)C(=O)N([C@@H](C)CO)C[C@H](C)[C@@H](CN(C)Cc1ccc(C(F)(F)F)cc1)OCCCC[C@H](C)O2`, the IC50 was 96 µM.

Take `CCOC(=O)C1=C(N)n2c(s/c(=C/c3ccco3)c2=O)=C(C(=O)OC)C1c1ccco1` (stereo unspecified): the IC50 is 2.17 µM.

As to `COc1cccc(CNC(=O)Cn2c(=O)oc3ccccc32)c1OC`, the IC50 was 85.7 µM.

As for `CCOC(=O)C1CCN(C(=O)Nc2ccc3nc(-c4ccco4)c(-c4ccco4)nc3c2)CC1`, the IC50 was below 0.432 µM.

Take `CCOC(=O)c1cc2cc(F)ccc2nc1C`: the IC50 is 1.65 µM.

As to `FC(F)(F)c1cc(-c2ccco2)nc(NCc2cccnc2)n1`, the IC50 was 42.3 µM.

In the case of `O=C(/C=C/c1ccco1)c1cccnc1`, the IC50 was 14.1 µM.

On to `COC(=O)/C(=N/Nc1ccccc1C)N1CCCc2ccccc21`, for which the IC50 is 1.9 µM.

As for `CCn1c(SCC(=O)Nc2cc(C)on2)nnc1-c1cccnc1`, the IC50 was 9.51 µM.

`CC(C)N1C(=O)CC(Nc2ccc(N3CCOCC3)cc2)C1=O` (stereo unspecified): the IC50 is 2.9 µM.

Consider `Cc1ccc(/C=C/C(=O)Nc2cccc(S(=O)(=O)N3CCOCC3)c2)o1`, for which the IC50 is 20.9 µM.

On to `Nc1ccc(N2CCCCCC2)cc1`, for which the IC50 was 1.06 µM.

Take `O=CN/C=C/c1cc(O)ccc1O`: the IC50 is 1.72 µM.

`COC(=O)C1=C(O)/C(=C\c2ccc(CNC(=O)C(=O)Nc3ccc(C)cc3)o2)N=C1C`: the IC50 is 24.1 µM.

On to `O=C(OC1CCCCC1)c1ccc2c(c1)C1C=CCC1C(C(=O)O)N2` (stereo unspecified), for which the IC50 was 0.51 µM.

Turning to `O=C(O)c1cccc2cccc(-c3c4ccc(=O)c(O)c-4oc4c(O)c(O)ccc34)c12`, the half-inhibitory concentration (IC50) was 0.53 µM.

As to `c1coc(-c2nc(-c3ccco3)c(-c3ccco3)nc2-c2ccco2)c1`, the IC50 is 0.35 µM.

Take `C[n+]1cccc2cccc([O-])c21`: the IC50 is 1.4 µM.

As for `CC1CCCN(Cc2c(O)ccc3c2O/C(=C\c2ccco2)C3=O)C1` (stereo unspecified), the IC50 was 2.89 µM.

Regarding `COc1cc(-c2cccs2)cc(=O)c2c(C)oc(C)c12`, the IC50 was 3.55 µM.

For the molecule `Cc1ccc(C)c2[nH]c(=O)c(CN(Cc3ccc4c(c3)OCO4)Cc3nnnn3Cc3ccco3)cc12`, the IC50 was 12.4 µM.

With `COC(=O)CCCC(=O)Nc1c(F)c(F)c(F)c(F)c1F`, the IC50 is 24.3 µM.

As for `O=C(O)C1Cc2ccccc2N2CCCC12` (stereo unspecified), the IC50 is 15.2 µM.

Regarding `N#C/C=C\Oc1ccc(Cl)cc1N`, the IC50 was 50.3 µM.

For `COc1ccc(O)c(C(=O)C2c3ccccc3C(=O)N2c2ccc(C)cc2)c1` (stereo unspecified), the IC50 was 20.4 µM.

Usually IC50 stands for the concentration at which inhibition is half-maximal.
